Where two headings read alike, the source gives them in different places.
Assay: Comparison of water solubilities of haptens, modified haptens and gentamicin reaction products
Type: physicochemical
Source text: In der Tabelle III werden die Wasserlöslichkeiten der Haptene Phenobarbital und Diphenylhydantoin in unveränderter Form, in modifizierter Form (carboxyliert bzw. aminiert) und in der sogenannten konjugierten Form, nämlich als Umsetzungsprodukt mit Gentamicin gegenübergestellt. Hieraus ergibt sich, daß die Haptene in unveränderter und in modifizierter Form hydrophob sind (Die Unlöslichkeit in Wasser ist ein Maß für die Hydrophobie einer Verbindung). Mit steigender Unlöslichkeit der Verbindungen in Wasser steigt die Hydrophobie und die Wahrscheinlichkeit, daß sie an die Oberfläche gebunden werden, wobei durch die unspezifischen Bindungen große Ungenauigkeiten in der Immunofluoreszenz-Bestimmungsmethode verursacht werden. Wie aus der Tabelle III weiterhin ersichtlich, erhält man ein lösliches, d.h. hydrophiles Produkt, wenn man ein hydrophobes Hapten wie Phenobarbital oder Diphenylhydantoin mit einer hydrophilen Verbindung wie Gentamicin verbindet. Derartige Produkte werden nicht als solche an die feste Oberfläche gebunden.

For O=C1NC(=O)C(c2ccccc2)(c2ccccc2)N1 [Diphenyl-hydantoin, Diphenylhydantoin], the Wasserlöslichkeiten was “unlöslich”.

With CCC1(c2ccccc2)C(=O)NC(=O)NC1=O [Phenobar-bital, Phenobarbital] the Wasserlöslichkeiten (in water, insolubility is taken as a measure of hydrophobicity) was “unlöslich”.
